The test system of assay [1] is C2C12 cells. The assay can be described thus: Anti-MHC immunostaining of differentiating C2C12 cells. The format is cell-based, mouse. Here is the method: (2) To a culture medium in which C2C12 cells were grown to confluence under growth condition, IBS008738 or DMSO was added. The C2C12 cells were fixed immediately after the addition of IBS008738 or DMSO, and at 24 hours, 48 hours or 72 hours after the addition of IBS008738 or DMSO under differentiation condition. The fixed C2C12 cells were immunostained with anti-MHC antibody. The cell nuclei were visualized with Hoechst 33342.
(3) C2C12 cells were grown under growth condition for 24 hours in a culture medium with IBS008738 or DMSO at a concentration of 10 μM, respectively, and switched to differentiation condition to continue the cultivation. The C2C12 cells were fixed immediately after the completion of cultivation under growth condition, and at 24 hours, 48 hours and 72 hours after the switching to differentiation condition, respectively.
C2C12 cells were passaged in a growth medium (DMEM containing 10% FBS) and differentiated in a differentiation medium (DMEM containing 2% horse serum (Invitrogen)).

Assay [2] has as its system C2C12 cells. Kind of assay: Antagonistic action on myostatin in C2C12 cells. As to conditions: TAZ knocked down (si TAZ); with myostatin; differentiation condition 72 hours. In kind it is cell-based, mouse. The source says:
Myostatin is a protein and a member of a transforming growth factor […] superfamily, and inhibits muscle growth and differentiation. Myostatin binds activin type IIB receptor and triggers SMAD2/3-dependent signaling. Since TAZ interacts with SMAD2/3, effects of IBS008738 on the signaling of myostatin was examined (FIGS. 8A to 8C). The line in the figures is 100 μm. The line and the error bar indicate the average value and the standard error, *p<0.05, […], ***p<0.001, ns refers to not significant.
(1) C2C12 cells in which TAZ was knocked down (si TAZ) and C2C12 cells in which TAZ was not knocked down (si Cont) were grown to confluence, respectively, A stock solution of 100 μg/mL myostatin in 4 mM […] with 0.1% (w/v) BSA and a stock solution of 10 mM IBS008738 in DMSO were prepared. The cells were cultured at differentiation condition for 72 hours in a 1 mL medium with 1 μL DMSO, a 1 mL medium with 1 μL myostatin stock solution, and a 1 mL medium with 1 μL IBS008738 stock solution. As a result, muscle formation of the C2C12 cells was inhibited in the case with only myostatin, but muscle formation of the C2C12 cells was recovered in the case with myostatin and IBS008738.
(2) The fusion index of C2C12 cells in which TAZ was knocked down (si TAZ) and C2C12 cells in which TAZ was not knocked down (si Cont), after being cultured under differentiation condition for 72 hours, was analyzed.
Expression of MHC of C2C12 cells in which TAZ was knocked down (si TAZ) and C2C12 cells in which TAZ was not knocked down (si Cont), after being cultured under differentiation condition for 72 hours, was analyzed by immunoblotting. As a result, expression of MHC decreased in the case with only myostatin, whereas it recovered in the case with myostatin and IBS008738 (see FIG. 8C).

For another assay, the system named is cyclin D1. The assay can be described thus: Quantitative real-time PCR, cyclin D1. In kind it is cell-based, mouse. The following applies: C2C12 cells, 10 μM; for Normarized mRNA abundance, CyclinD1: listed as IBS008738. As to the method: (§1) (1) Quantitative real-time PCR was performed with C2C12 cells immediately before the induction of muscle formation (0 h), and after culturing under differentiation condition in a culture medium added with IBS008738 or DMSO at a concentration of 10 μM for 24 hours (24 h) and 72 hours (72 h), respectively. […] The line and error bar indicate the average value and the standard error, **p<0.05, and ns refers to not significant.
(2) Evaluation was also performed under the same condition on the connective tissue growth factor (CTGF) and cyclin D1, as TAZ targets in epidermal cells.
(§2) The quantitative real-time PCR was performed with SYBER Green (Roche) and ABI7500 Realtime PCR system (Applied Biosystems).
On the technique in general: Quantitative PCR measures a nucleic acid by following its amplification.

In assay [3] the test system is C2C12 cells. Kind of assay: Proliferation of C2C12 cells by MTT method. In kind it is cell-based, mouse. As to conditions: for Relative cell proliferation: growth condition, day 1 as 1. Here is the method: In order to examine whether IBS008738 as an effect on the proliferation of cells, C2C12 cells were cultured under growth condition for 5 days in a medium added with IBS008738 at 0 μM (not added), 0.1 μM, 1 μM and 10 μM, respectively, and the number of the cells was counted each day by MTT (3-(4, 5-dimethylthiazol-2-yl)-2, 5-diphenyl tetrazolium bromide) method. The counting was performed three times, and the obtained numbers were relativized with the number of day 1 as 1.

The test system of another assay is TEAD reporter. Kind of assay: Luciferase reporter assay, TEAD reporter. The format is cell-based. As to conditions: Mus musculus, C2C12, 24 h, C2C12 cells expressing reporter and TAZ WT, differentiation medium 24 hours. Here is the method: The effect and its degree on the activity of a reporter, derived from a transcription factor that interacts with TAZ in C2C12 cells, were evaluated. Specifically, C2C12 cells expressing luciferase reporters corresponding to MyoD, TEAD, SMAD and Pax3 and C2C12 cells expressing these luciferase reporters and TAZ were cultured in a culture medium added with IBS008738 or DMSO at a concentration of 10 μM, respectively. […] The line and the error bar indicate the average value and the standard error, *p<0.05, **p<0.01, ns refers to not significant.
Transfection of the luciferase reporters was performed to the C2C12 cells after being plated at 12-well plates (1×10^5 cells/well) and cultured overnight. As the luciferase reporters, pGL3 Myo-184- (MyoD-), 8×GT-IIC-δ51LucII- (TEAD-), 9×CAGA-MLP-(SMAD-), and p(PRS-1/-4)3- (Pax3-) were transfected to the cells alone or with TAZ. These reporter vectors were from Keiji Miyazawa (Yamanashi University), Hiroshi Sasaki (Kumamoto University) and Hiroki Kurihara (The University of Tokyo).
Immediately after the transfection, DMSO or IBS008738 was added at a concentration of 10 μM, respectively. After growing the cells to confluence, the cells were transferred to a differentiation medium with DMSO or IBS008738, and cultured for 24 hours before the luciferase assay.
On the technique in general: A reporter such as luciferase makes a cellular process visible.

The test system of another assay is caveolin 3. The assay can be described thus: Quantitative real-time PCR, caveolin 3. The format is cell-based, mouse. The following applies: C2C12 cells, 10 μM; for Normarized mRNA abundance, Caveolin3: listed as IBS008738. Here is the method:
as §1
Evaluation was also performed under the same condition on M-cadherin, calpain 1 and caveolin 3, which are myofusion markers. As a result, there was no increase in the degree of gene transcription in the case with IBS008738.
as §2

Values joined by “and” are separate entries in the source; they are usually repeats but may differ in a detail not shown here. Equal entries are not always repeated.

One may read the fold induction as the ratio of treated to control signal. Higher therefore signals a large rise in signal.

For `Cc1ccc(-n2cnc(/N=C/N3CCOCC3)c2C(=O)c2ccccc2)cc1` [exemplary compound 1], the “cell differentiation compared with DMSO” value with C2C12 cells [1] (10 μM, 24 hours under growth condition, then differentiation condition up to 72 hours) is “more developed”. In addition, the “cell differentiation and MHC expression compared with DMSO” value with C2C12 cells [1] (added at confluence, fixed at 0, 24, 48 or 72 hours under differentiation condition, anti-MHC antibody) is reported as “more significant”. Further, in the assay on C2C12 cells [2], the “muscle formation of the C2C12 cells” value is reported as “did not recover”. Further, the “gene transcription of cyclin D1 compared with DMSO” value in the assay on cyclin D1 (24 h and 72 h) is “no significant difference”. Also, the “Normarized mRNA abundance, CyclinD1” value in the assay with cyclin D1 (differentiation condition 24 h) is 0.95 and 0.83 and 0.78; in the assay with cyclin D1 (differentiation condition 72 h), 0.62 and 0.60 and 0.61. In addition, the “effect on the proliferation of C2C12 cells” value in the assay with C2C12 cells [3] (0.1 μM, 1 μM and 10 μM, 5 days) is recorded as “does not have an effect”. The Relative cell proliferation is 1.00 in the assay with C2C12 cells [3] (0.1 μM, 24 h); 2.09 and 2.06 and 2.18 with C2C12 cells [3] (0.1 μM, 48 h, listed as IBS008738); 5.37 and 4.74 and 4.59 with C2C12 cells [3] (0.1 μM, 72 h, listed as IBS008738); 9.01 and 8.76 and 8.78 in the assay with C2C12 cells [3] (0.1 μM, 120 h, listed as IBS008738); 1.00 in the assay on C2C12 cells [3] (1 μM, 24 h); 2.41 and 2.05 and 2.07 in the assay on C2C12 cells [3] (1 μM, 48 h, listed as IBS008738). The Relative cell proliferation was 5.11 and 4.54 and 4.46 in the assay on C2C12 cells [3] (1 μM, 72 h, listed as IBS008738); 9.13 and 8.80 and 8.79 with C2C12 cells [3] (1 μM, 120 h, listed as IBS008738); 1.00 with C2C12 cells [3] (10 μM, 24 h); 2.09 and 2.07 in the assay on C2C12 cells [3] (10 μM, 48 h, listed as IBS008738); 4.70 and 4.90 and 4.92 in the assay on C2C12 cells [3] (10 μM, 72 h, listed as IBS008738); 8.63 and 8.99 and 8.56 in the assay with C2C12 cells [3] (10 μM, 120 h, listed as IBS008738). The compound also showed a fold induction at 10 µM with TEAD reporter of 8.41. Moreover, in the assay with caveolin 3 (24 h and 72 h), the “degree of gene transcription of caveolin 3” value is given as “no increase”. For the same compound, the “Normarized mRNA abundance, Caveolin3” value in the assay with caveolin 3 (differentiation condition 24 h) was 0.14 and 0.13; with caveolin 3 (differentiation condition 72 h), 2.08 and 2.47 and 2.09.

These data come from patent publication US10653672B2, “Myogenesis promotor, muscle atrophy inhibitor, medical composition and TAZ activator” (National University Corporation Tokyo Medical and Dental …, priority 2014, dated 2020).
